# Experimental data as given in patent US20250127778A1, “CANCER IMMUNOTHERAPY COMPOSITION CONTAINING INTERACTION INHIBITOR OF STING AND TRIM29 AS ACTIVE INGREDIENT” (SPARK BIOPHARMA, INC, priority 2021, published 2025).
# Assays:
# [1] = Body weight and toxicity signals in CT26 syngeneic mouse model; type: in vivo; details: treated individually or in combination, FIG. 24
# Description: 2×10^5 CT26 cell lines were prepared in 50 μL culture medium and subcutaneously injected. […] The cGAMP solution was manufactured with a final composition of PEG400:distilled water=40:60, and 20 μL was injected each time. The solution of the compound of Formula 1 was manufactured with the composition of DMSO:PEG400:distilled water=2:40:58, and 20 μL was injected each time. The cGAMP solution was injected once every two days, four times in total, and the solution of the compound of Formula 1 was injected once every four days, two times in total, starting with the second administration of cGAMP. The size of the tumor was measured by using calipers every two days, and the volume thereof was calculated as (length×width×height/2). The body weight of the mice was also measured every two days.
# [2] = molecular target: STING (Homo sapiens, UniProt Q86WV6); test: CETSA and ITDRF in A431 cells, STING; type: binding; set-up: endogenous in cells; host or cells: A431
# Source text: (§1) It was verified whether the oxopiperazine derivative of the present invention was bound to STING among STING and TRIM29 to inhibit interaction thereof, based on the compound of Formula 1, by the cellular thermal shift assay (CETSA) and the isothermal dose response fingerprint (ITDRF) which were major technologies for verifying the interaction between small molecule compounds and target proteins. (D. M. Molinaetal., Science 2013, 341, 84-87.)
# (§2) To verify the target of the compound of Formula 1 using the CETSA technique, the human A431 cell lines and mouse Raw264.7 cell lines were seeded on a 100-mm or 150-mm culture dish and cultured for one day. […] Afterwards, centrifugation was performed at 20000 g for 20 minutes at 4° C., the supernatant was transferred to a new container, and each concentration was measured by using the Micro BCA™ protein assay kit (ThermoFisher) according to the protocol of the manufacturer. The concentration of each sample was equally adjusted by using the RIPA lysis buffer, the 5× SDS-PAGE loading buffer (Biosesang) was added according to the ratio of the manufacturer, and the resultant was treated at 95° C. for 5 minutes and analyzed by using the Western blotting method described above.
# [3] = system: bone-marrow derived dendritic cells (BMDC) and OT-1 T cells; test: BMDC antigen presentation to OT-1 T cells with OVA antigen; type: cell-based, mouse; details: OVA antigen directly treated, FIG. 18
# Description: It was confirmed that the compound of Formula 1 increased the antigen presentation efficacy of bone-marrow derived dendritic cells (BMDC) of a STING agonist to cytotoxic T cells (CD8^+ T cells).
# Specifically, mouse bone marrow-derived cells were obtained from the femur and tibia of 8-week-old female C57BL/6 mice. 2×10^6 of cells were cultured in 2 mL of a MLR medium (RPMI 1640 medium supplemented with 10% FBS, 1% 1M HEPES, 1% glutamine, and 1% antibiotic-antimycotic) supplemented with 10 ng/ml mGM-CSF and 5 ng/ml IL-4 to be differentiated into dendritic cells (BMDC). On the third day from the start of cell culturing, 2 mL of the MLR medium was added. Additionally, on the sixth day, 2×10^6 dendritic cells were treated with 50 μg/mL OVA protein and/or 100 ng/ml lipopolysaccharide (LPS), and cGAMP and/or the compound represented by Formula 1 at various concentrations. Thereafter, the cells were cultured at 37° C. in a 5% CO2 incubator for 24 hours, and then flow cytometry of dendritic cell activation markers (CD80, CD86, MHC II) was performed. Subsequently, 5×10^4 dendritic cells were incubated with 2×10^5 CFSE-labeled OT-1 T cells (OVA-specific CD8^+ T cells) to observe OT-1 T cell proliferation.
# [4] = system: bone-marrow derived dendritic cells (BMDC) and OT-1 T cells; test: BMDC cross-antigen presentation with killed MC38 or MC38-OVA tumor cells; type: cell-based, mouse; details: with cGAMP, FIG. 19
# Description: In the same manner as <Experimental Example 7> above, mouse bone marrow-derived cells were obtained and differentiated. On the sixth day, 2×10^6 dendritic cells (BMDC) were co-cultured with 2×10^6 of MC38 or MC38-OVA tumor cells frozen-thawed three times and treated with cGAMP and/or the compound of Formula 1 in various concentrations. The cells were cultured at 37° C. in a 5% CO2 incubator for 24 hours, and then flow cytometry of dendritic cell activation markers (CD80, CD86, MHC II) was performed. Then, 5×10^4 cells were incubated with 2×10^5 CFSE-labeled OT-1 T cells (OVA-specific CD8^+ T cells) to observe OT-1 T cell proliferation.
# [5] = molecular target: T1, STING (Mus musculus, UniProt Q3TBT3); test: CETSA and ITDRF in Raw264.7 cells, STING; type: binding; set-up: endogenous in cells; host or cells: Raw264.7
# T1 sequence (Q3TBT3 1-378): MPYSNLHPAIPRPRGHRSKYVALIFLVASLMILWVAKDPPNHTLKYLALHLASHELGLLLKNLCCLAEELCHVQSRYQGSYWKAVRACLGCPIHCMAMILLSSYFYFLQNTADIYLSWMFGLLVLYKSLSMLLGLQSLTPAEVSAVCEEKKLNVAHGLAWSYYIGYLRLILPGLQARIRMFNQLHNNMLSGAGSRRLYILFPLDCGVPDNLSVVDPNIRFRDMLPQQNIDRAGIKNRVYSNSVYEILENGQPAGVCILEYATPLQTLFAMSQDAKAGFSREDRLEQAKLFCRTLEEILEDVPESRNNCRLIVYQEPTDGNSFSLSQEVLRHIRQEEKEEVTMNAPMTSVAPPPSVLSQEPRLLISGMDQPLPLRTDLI
# Source text: as §1, §2
# [6] = system: STING mRNA; test: qRT-PCR of STING mRNA in Raw264.7 cells; type: cell-based, mouse; details: FIG. 17
# Chain of STING (Homo sapiens, UniProt Q86WV6) (Q86WV6 whole entry H232R): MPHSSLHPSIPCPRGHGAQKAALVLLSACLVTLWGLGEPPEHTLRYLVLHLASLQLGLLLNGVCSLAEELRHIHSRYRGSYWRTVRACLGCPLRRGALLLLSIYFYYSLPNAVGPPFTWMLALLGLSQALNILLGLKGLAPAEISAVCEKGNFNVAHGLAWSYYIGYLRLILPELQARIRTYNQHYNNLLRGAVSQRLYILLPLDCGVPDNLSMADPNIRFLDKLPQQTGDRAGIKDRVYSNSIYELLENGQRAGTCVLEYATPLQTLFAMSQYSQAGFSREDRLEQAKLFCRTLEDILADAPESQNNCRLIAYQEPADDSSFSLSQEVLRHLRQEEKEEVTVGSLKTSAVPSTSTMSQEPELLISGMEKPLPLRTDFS
structure (smiles),measurement,setting,value
"COc1ccc(CC2=CN(c3ccc(C(=O)NC[C@H]4CCCO4)cc3[N+](=O)[O-])[C@H](C(C)C)C(=O)N2Cc2ccc(O)cc2)cc1 [Formula 1, 4-((R)-4-(4-hydroxybenzyl)-2-isopropyl-5-(4-methoxybenzyl)-3-oxo-3,4-dihydropyrazin-1 (2H)-yl)-3-nitro-N-(((R)-tetrahydrofuran-2-yl)methyl)benzamide]",body weight change or signal of toxicity,[1],significant change in body weight or signal of toxicity was not observed
same,CETSA thermal stability of STING,[2]; FIG. 11,induced thermal destabilization by selective binding only to STING
same,ITDRF thermal stability of STING,[2]; FIG. 12,reduced the thermal stability of STING at high concentrations in a concentration-dependent manner
same,OT-1 T cell proliferation (BMDC activation by cGAMP and antigen presentation efficacy),[3],promoted cell proliferation in a concentration-dependent manner
same,OT-1 T cell proliferation (cross-antigen presentation),[4]; MC38 control group,such an effect did not occur at all
same,OT-1 T cell proliferation (cross-antigen presentation),"[4]; killed MC38-OVA cells, concentration-dependent",promoted cell proliferation
same,CETSA thermal stability of STING,[5]; FIG. 13,induced thermal destabilization by selective binding only to STING
same,ITDRF thermal stability of STING,[5]; FIG. 14,reduced the thermal stability of STING at high concentrations in a concentration-dependent manner
same,relation of STING increase to RNA transcription (STING mRNA),[6],not related to RNA transcription
